In patent US9605317B2, “Biomarkers for assessing peripheral neuropathy response to cancer treatment” (Janssen Pharmaceutica NV, priority 2009, dated 2017):
Where two headings read alike, the source gives them in different places.

How the values were obtained:
[1] = tested on: subjects with previously untreated multiple myeloma; assay: Example 1 randomized open-label study, VMP vs MP: treatment-emergent peripheral neuropathy; details: human, in vivo, 54 weeks
Experimental: A randomized, open-label, multicenter study was conducted, consisting of 3 Phases: a Pre-randomization (Screening) Phase, an Open-label Treatment Phase, and a Post-treatment Phase. Approximately 680 subjects with previously untreated multiple myeloma were randomly assigned to one of two treatment groups and were stratified according to baseline β2-microglobulin, baseline albumin levels and region (North America, Europe, other). Subjects received either VELCADE™/Melphalan/Prednisone (VMP) (Treatment Group A) or Melphalan/Prednisone (MP) (Treatment Group B). Subjects in Treatment Group A received VELCADE™ 1.3 mg/m^2 (twice weekly [Weeks 1, 2, 4, and 5] for four 6-week cycles [8 doses per cycle] followed by once weekly [Weeks 1, 2, 4, and 5] for five 6-week cycles [4 doses per cycle]) in combination with melphalan 9 mg/m^2 and prednisone 60 mg/m^2 (once daily on Days 1 to 4 of each 6-week cycle). Subjects in Treatment Group B received 9 cycles of melphalan 9 mg/m^2 and prednisone 60 mg/m^2 once daily on Days 1 to 4 of each 6-week cycle. For both groups, treatment continued for a maximum of 9 cycles (54 weeks) and subjects were discontinued if disease progression or an unacceptable treatment-related toxicity occurred, or if a subject withdrew consent.
Included in the analysis are the 368 subjects who met all of the following criteria: consented to DNA analysis; had usable genotype data for SNPs listed in Appendix 1; had Adverse Event related clinical data before treatment and after at least one cycle of VELCADE™ treatment (including those having neurological events and those completing treatment with no neurological event). These 368 subjects included: Treatment Group A (154 Caucasian, 2 black, 10 Asian); Treatment Group B (168 Caucasian, 4 black, 12 Asian), and 18 were not treated.
The primary adverse event endpoints are the treatment-emergent peripheral neuropathies caused by VELCADE™, including peripheral neuropathy NEC, peripheral sensory neuropathy, and neuralgia. For each specific peripheral neuropathy endpoint, the null hypothesis was that none of the successfully genotyped SNPs is associated with this specific treatment-emergent peripheral neuropathy. Each successfully genotyped SNP is tested to see whether there is a difference in the distribution of the genotypes of this SNP between patients with and without this specific VELCADE™ treatment-emergent peripheral neuropathy. The test result is subsequently adjusted by total number of successfully genotyped SNPs to correct multiplicity. […]

[2] = tested on: patients with multiple myeloma; details: cited from earlier work
patients = details: cited from earlier work
[3] = tested on: patients with newly diagnosed multiple myeloma; details: human, in vivo, 4 cycles
Experimental: A randomized, open-label, multicenter study was conducted that compared vincristine/adriamycin/dexamethasone (VAD) and VELCADE™/Dexamethasone as induction treatment prior to autologous hematopoietic stem cell transplantation (AHSCT) in patients up to (and including) the age of 65 with newly diagnosed multiple myeloma. Approximately 480 patients were included in this study. Subjects were randomized at diagnosis into one of 4 induction treatment arms: • A1 VAD (4 cycles) • A2 VAD (4 cycles) followed by Dexamethasone/cyclophosphomide/etoposide/cis-Platinum (DCEP) (2 cycles) • B1 VELCADE+dexamethasone (4 cycles) • B2 VELCADE+dexamethasone (4 cycles) followed by DCEP (2 cycles)
Randomization was stratified based on the initial β2 microglobulin level (> or ≦3 mg/l) and the presence of chromosome 13 abnormalities identified by fluorescence in situ hybridization (FISH) analysis. After induction treatment (Arms A1 and B1) or after consolidation treatment (Arms A2 and B2) all of the patients underwent AHSCT.
470 samples were sent to Illumina for genotyping on 2016 SNPs in 172 non-mitochondria genes. Out of the 470 samples, 29 samples are Hapmap control subjects, 3 samples are controls subjects from a Belgium family, and another 4 are samples from Example 1 for quality control. Therefore, there were totally 434 unique subjects from this study (103 in A1, 105 in A2, 111 in B1, 111 in B2 and 4 not treated).
After the quality control and filtering, 212 VELCADE treated subjects were included in the association analysis on non-mtSNPs.
Based on the raw p-values for the association tests, none of the significant associations identified in Example 1 were replicated in Example 2. […] Patients with homogenous genotype of the minor allele of rs4553808 (GG) tend to have earlier onset of peripheral neuropathy than those that contain only 1 or 0 copy of the minor allele (AA/AG): median time to onset was 68 days vs. 70 days.
The association with time and cumulative dosage of VELCADE™ to the onset of different levels of peripheral neuropathy in all 1908 SNPs in Example 2 was tested. No significant associations was identified after multiple testing correction using Bonfferoni (0.05/1908=2.62E-05).

Q: Which “onset of any peripheral neuropathy” value [1] does the source give for `CC(C)C[C@H](NC(=O)[C@H](Cc1ccccc1)NC(=O)c1cnccn1)B(O)O` [VELCADE, bortezomib] here?
A: 72 events

Q: What about the “onset of grade≧2 peripheral neuropathy” value [1] of the same molecule?
A: 50 events

Q: What about the “onset of grade≧3 peripheral neuropathy” value [1] of the same molecule?
A: 21 events

Q: And the “onset rate of peripheral neuropathy event” value [1]?
A: 51.8%

Q: What about the “patients with improvement or resolution of peripheral neuropathy” value ([2]; after dose discontinuation, patients discontinuing due to Grade 2 PN or who had >Grade 3 PN) of the same molecule?
A: 73%

Q: And the “patients with improvement or resolution of peripheral neuropathy” value ([2]; after dose reduction, patients with >Grade 2 PN)?
A: 51%

Q: And the “treatment cycle at which peripheral neuropathy reaches a plateau” value (patients; in vivo)?
A: 5 cycle

Q: And the “mean rating of associated pain” value (patients; scale of 0 for no pain and 10 for worst imaginable pain)?
A: 7.8

Q: And the Neuralgia [3]?
A: 9 cases

Q: What about the “any one of the three adverse events (AE3)” value [3] of the same molecule?
A: 51 cases

Q: What about the “onset rate of peripheral neuropathy event” value [3] of the same molecule?
A: 44.8%

Q: And the “peripheral neuropathy NEC” value [3]?
A: 44 cases

Q: And the peripheral sensory neuropathy [3]?
A: 8 cases
